Reference: doi:10.1101/2021.08.31.458471v1 (biorxiv, 2021)

Tests used:
[1] = biological target: McpA signaling domain (McpAc) (Bacillus subtilis, UniProt P39214); assay: biochemical
[2] = biological target: McpB signaling domain (Bacillus subtilis, UniProt P39215); conditions: 20 µM protein, 2 mM benzene, PBS in D2O pH 7.4, 298 K
Sequence of McpB signaling domain (P39215 359-662): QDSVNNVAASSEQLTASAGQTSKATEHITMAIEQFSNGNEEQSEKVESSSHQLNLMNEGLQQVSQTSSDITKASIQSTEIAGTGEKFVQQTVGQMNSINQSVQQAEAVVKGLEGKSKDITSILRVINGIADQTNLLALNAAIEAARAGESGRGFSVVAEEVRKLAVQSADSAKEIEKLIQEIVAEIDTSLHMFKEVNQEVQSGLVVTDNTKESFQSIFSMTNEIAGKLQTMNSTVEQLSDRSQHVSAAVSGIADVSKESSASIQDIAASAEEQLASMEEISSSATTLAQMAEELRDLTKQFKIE

Sequence of McpA signaling domain (McpAc) (P39214 359-661): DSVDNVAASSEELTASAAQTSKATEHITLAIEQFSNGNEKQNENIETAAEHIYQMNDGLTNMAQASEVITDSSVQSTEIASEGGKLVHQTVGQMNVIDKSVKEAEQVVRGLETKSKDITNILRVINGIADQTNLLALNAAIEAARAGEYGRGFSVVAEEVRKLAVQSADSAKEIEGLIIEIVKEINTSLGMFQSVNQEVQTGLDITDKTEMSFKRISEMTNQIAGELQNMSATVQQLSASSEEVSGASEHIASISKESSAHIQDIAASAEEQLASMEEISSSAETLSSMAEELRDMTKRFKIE

`Oc1ccccc1` [phenol] showed a Kd [1] of 4.8 mM.

With `c1ccccc1` [benzene] the STD-AF [2] was 16.4%.
